The experiment addresses T1, Ceramide transfer protein (CERT) (Homo sapiens, UniProt Q9Y5P4).
T1 construct: gene CERT1; PH domain, residues 20–122 (three extra amino acids G-E-F before residue 20)
T1 sequence (Q9Y5P4 20-122): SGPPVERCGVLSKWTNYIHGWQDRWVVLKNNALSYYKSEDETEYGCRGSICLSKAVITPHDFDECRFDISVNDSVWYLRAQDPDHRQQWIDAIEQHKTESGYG
Put plainly: […]-1H HSQC NMR chemical shift titration, global fit. Format: binding.

Consider `CCCCCC(=O)OC[C@H](COP(=O)(O)O[C@H]1[C@H](O)[C@@H](O)[C@H](OP(=O)(O)O)[C@@H](O)[C@H]1O)OC(=O)CCCCC` [diC6-PtdIns(4)P], for which the Kd amounted to 470 ± 14 µM.

The record behind these values is paper PMC3832616, “Crystal Structure of the Pleckstrin Homology Domain from the Ceramide Transfer Protein: Implications for Conformational Change upon Ligand Binding” (PLoS ONE, 2013).
